Assay results taken from US10731216B2, “Methods and compositions for biomarkers of depression and pharmacoresponse” (priority 2014, dated 2020).
“Also recorded” adds a separate entry of the source. Where two headings read alike, the source gives them in different places.

Legend:
Bmal1 = Bmal1 expression in primary fibroblast cultures from control and DEX-exposed mice (qPCR); type: cell-based, mouse; details: fibroblasts from prenatally DEX-exposed mice aged 6 mo; synchronised with 1 μM DEX
Protocol: (§1) Tissue samples (˜0.25 cm^2) were harvested from the ear of adult (6 mo) control and DEX-exposed mice under terminal anesthesia. The tissue was rinsed in Hank's Balanced Salt Solution (HBSS) (Life Technologies Europe BV, Stockholm, Sweden), then minced with sterile razor blade into Collagenase (Type XI-S) (Sigma-Aldrich, Sweden) (30 min at 37° C.). After digestion, 3 ml of DMEM Medium (Life Technologies) supplemented with 10% Fetal Bovine Serum and 1% Penicillin/Streptomycin (Life Technologies) was added to a 6 cm plate and the samples were incubated at 37° C. for at least 6 days. After passaging (0.05% Trypsin-EDTA; Invitrogen), the cells were plated in 12 multi-well plates in MEF medium (DMEM Medium+10% FBS+1% pen/strep) at a density of at least 50 k/cm^2. […] The cells were then collected between 6 and 36 h after synchronisation. The relative expression of Bmal1 was assessed by qPCR with Gapdh as housekeeping gene as described in Example 1 (Table 2: SEQ ID NO 5 and 6, and 1 5 and 2, respectively).

C57Bl/6 mice [1] = experiment: Forced swim test (FST), depression-like behavior; type: in vivo, mouse; details: for immobility time in FST after FLX treatment: 12 mo, FLX 80 mg/L in drinking water for 21 days
Protocol: […]; Sigma-Aldrich, Sweden) from gestational day (GD) 14 until delivery. The delivery day was recorded as postnatal day (PND) 0. The litters were culled to 4 pups/litter at PND3. The pups were weighed at PND3, 7, 14, and 21. At weaning (PND21), the mice were implanted subcutaneously with sterile radio-frequency identification (RFID) tags (Trovan Unique 100A, Trovan Ltd., UK) under brief isoflurane anesthesia. The transponders allowed unambiguous identification of animals and were also used for monitoring the activity in homecage environment. After implantation, the pups were redistributed to new cages so that each cage would house a maximum of 5 mice originating from different litters, and the distribution was maintained throughout the study. The mice were kept in an animal facility under 12 h:12 h light-dark (LD) cycle (light intensity 50 lx; light on at 6 a.m.) at constant temperature (22±1° C.) and humidity (50%±5%). The circadian zeitgeber (“time-giver”) time (ZT) 0 corresponds to the subjective sunrise, i.e., the onset of the light phase.
Adult male mice aged 7 weeks, 3 mo, or 12 mo were tested for depression-like behavior in the forced swim tests (FST). Briefly, the animals were individually placed in glass cylinders (24 cm height, 12 cm diameter) filled with water (23.5° C.) to a depth of 16 cm. The animals were exposed to a 15 min pretest followed by a 6 min test 24 h later. Test sessions were videotaped and analysed offline by one investigator who was blind to the treatment and exposure conditions. Immobility was defined as passive floating for at least 2 s. After documenting depression-like behavior at the age of 12 mo, the animals were treated with fluoxetine (FLX; a selective serotonin re-uptake inhibitor antidepressant) dissolved in drinking water (80 mg/L) for 21 days before repeating the test. In addition to FST, depression-like behavior was tested in a tail-suspension test (TST), as described below.

Per2 promoter = experiment: Luciferase reporter assay in Per2::Luc primary mouse fibroblasts after DEX synchronisation; type: cell-based; details: 1 μM DEX single pulse
Protocol: The generation of knock-in mice expressing firefly luciferase under the control of Per2 promoter (Per2::Luc) has been described previously (Yoo et al. 2004).
as §1, with “samples (about 0.25” for “samples (˜0.25”, “and Dex-exposed” for “and DEX-exposed”, “The number of photons emitted by each culture dish was counted over 1 minute every 10 min (time resolution: 6 data points/h). The time series” for “The cells”, “were further analyzed by means” for “were then collected between 6 and 36 h after synchronisation. The relative expression”, “of cosinor analysis” for “of Bmal1 was assessed by qPCR with Gapdh as housekeeping gene”, “Example 4.” for “Example 1 (Table 2: SEQ ID NO 5 and 6, and 1 5 and 2, respectively).”

BMAL1, PER1 and PER2 = experiment: Clock gene mRNA expression in primary human fibroblasts after DEX synchronisation (qPCR); type: cell-based; details: 1 μM DEX; fibroblasts from healthy subjects; 6-36 h after synchronisation
Protocol: A skin biopsy (about 5×2 mm) was collected from the internal aspect of the arm under sterile conditions after local anesthesia using EMLA patches (AstraZeneca, Sodertalje, Sweden). The wound was then covered with a sterile patch, and a small scar is formed typically within […]. The tissue sample was quickly transferred to ice-cold HBSS (Life Technologies Europe BV, Stockholm, Sweden) and minced with a sterile razor blade into Collagenase (Type XI-S) (Sigma-Aldrich, Sweden) (30 min at 37° C.). After digestion, 3 ml of DMEM Medium (Life Technologies) supplemented with 10 mM Hepes buffer, sodium pyruvate, non-essential amino acid mixture, glutamax, 20% Fetal Bovine Serum, and 1% Penicillin/Streptomycin (all supplements were from Life Technologies) was added to a 6 cm plate and the samples were incubated at 37° C. until the fibroblasts reached confluence (typically 3-4 weeks). The confluent fibroblast cultures were passaged (0.05% Trypsin-EDTA; Invitrogen) then plated in 12 multi-well plates at a density of at least 50 k/cm^2 in the same medium as used above. […] The cells were collected between 6 and 36 h after synchronisation. The relative mRNA expression of BMAL1, PER1 and PER2 (Table 2: SEQ ID NO 19 and 20) was assessed by qPCR with HP RT (Table 2: SEQ ID NO 13 and 14) as housekeeping gene. The qPCR procedure is described in Example 1.

C57Bl/6 mice [2] = experiment: Homecage spontaneous activity (cosinor, periodogram, detrended fluctuation analysis)
Protocol: The spontaneous activity of mice aged 1, 3, 5, and 12 mo (N=7-8/group) was recorded using the TraffiCage™ system (NewBehavior, Zurich, Switzerland). Briefly, the system consists of an array of radio frequency (RF) antennas placed under the cage with group-housed, freely moving mice. The antennas read the RFID tags and provide an approximate location of each animal with a time resolution of 20 ms. The time interval during which an animal is detected constantly by the same antenna is defined as a “visit.” When an animal changes location enough to be detected by another antenna, a new visit is recorded. Each visit is described by the start time and duration. For long recordings, the number of visits is virtually equal to the number of transitions, and can be used as activity count. The time series of visits are exported as ASCII files and analysed using custom routines developed in Matlab™ R2013b (The MathWorks™, Natick, Md., USA).
The mice were housed in a climate-controlled, isolated room for a period of 6 to 7 weeks, with minimal interactions with human experimenters (except for changing the cage and to replenish food and water, which occurred at random times throughout the experiment). The synchronisation of activity monitoring with the LD cycle was ensured by using a remote control device (TellStick™, Telldus Technologies AB, Lund, Sweden) operated by the computer running TraffiCage™ control software. To minimize the effects of novelty and possible interference from circadian rhythm entrainment, the baseline measurements were derived based on 3 LD cycles after an acclimation period of at least 3 LD cycles.
The analysis of circadian rhythmicity consisted of rhythmometry by means of cosinor analysis. […] We next analysed spontaneous activity by detrended fluctuation analysis (DFA). The method is based on linear regression analysis of the residual variance of the time series against the time scale used for detrending on double-logarithmic plots. The slope of a linear regression in double-logarithmic plot translates into a scaling exponent, and describes the long-term autocorrelation patterns embedded in the time series.

[3] = Corticosterone metabolites in feces; type: in vivo, mouse; details: prenatal DEX exposure, 12 mo
Protocol: The circadian pattern of GC secretion at 12 mo was investigated using a minimally invasive approach. To this end, spontaneous fecal boli were collected between ZT1-2 and ZT12-14 (i.e., immediately after the transition between the light and dark phases of the LD cycle). The feces were collected in sterile Eppendorf tubes and stored at −80° C. until further processing. Samples from each mouse were collected on two occasions (7 day interval between samplings) and the measurements for each mouse were averaged before analysing the differences across the LD cycle. The concentration of corticosterone metabolites in dry fecal extracts was measured by enzyme immunoassay according to manufacturer's instructions (DetectX™, Arbor Assays, Ann Arbor, […]., USA).

C57Bl/6 mice [4] = experiment: Tail-suspension test (TST); type: in vivo, mouse; details: prenatal DEX exposure; mice aged 12 mo
Protocol: The delivery day was recorded as postnatal day (PND) 0. The litters were culled to 4 pups/litter at PND3. The pups were weighed at PND3, 7, 14, and 21. At weaning (PND21), the mice were implanted subcutaneously with sterile radio-frequency identification (RFID) tags (Trovan Unique 100A, Trovan Ltd., UK) under brief isoflurane anesthesia. The transponders allowed unambiguous identification of animals and were also used for monitoring the activity in homecage environment. After implantation, the pups were redistributed to new cages so that each cage would house a maximum of 5 mice originating from different litters, and the distribution was maintained throughout the study. The mice were kept in an animal facility under 12 h:12 h light-dark (LD) cycle (light intensity 50 lx; light on at 6 a.m.) at constant temperature (22±1° C.) and humidity (50%±5%). The circadian zeitgeber (“time-giver”) time (ZT) 0 corresponds to the subjective sunrise, i.e., the onset of the light phase.
For TST, the mice were allowed to acclimatize in the testing room for at least 30 min before the experiment. The mice were suspended by the tail 15 cm above the table (using adhesive tape placed approx. 2 cm from the base of the tail). Soft padding was provided in order to prevent injuries in case the animal escaped or fell down because of tape failure. After 6 min, the animal were released and placed in the homecage. […]

[5] = system: hippocampal dentate gyrus; details: chronic FLX; for effect of FLX treatment on neurogenesis: 12 mo
mice = experiment: MeHg model of developmental neurotoxicity, depression-like behavior; type: in vivo, mouse

C[C@@H]1C[C@H]2[C@@H]3CCC4=CC(=O)C=C[C@]4(C)[C@@]3(F)[C@@H](O)C[C@]2(C)[C@@]1(O)C(=O)CO [DEX, dexamethasone]
oscillations in Bmal1 expression vs control mice (Bmal1): attenuated oscillations | immobility time in FST vs controls (C57Bl/6 mice [1]; prenatal DEX 0.05 mg/kg/day s.c. from GD14 until delivery, male offspring at 12 mo): increased | time over which oscillations can be detected after initial DEX synchronisation (Per2 promoter): ≤ 10 days | period of oscillations in clock gene mRNA expression after DEX synchronisation (BMAL1, PER1 and PER2): about 24 h | scaling coefficient of spontaneous activity (detrended fluctuation analysis) (C57Bl/6 mice [2]; one DEX-exposed mouse (FIG. 6D), control mouse 0.82): 0.88 | amplitude of circadian rhythm (cosinor), baseline vs forced synchronisation (C57Bl/6 mice [2]; prenatal DEX exposure): no significant difference | circadian period of spontaneous activity (C57Bl/6 mice [2]; prenatal DEX exposure, 12 months old, constant steady entrainment): shorter | amplitude of circadian rhythm (cosinor) at baseline vs controls (C57Bl/6 mice [2]; prenatal DEX exposure, LD cycle baseline): larger | scaling exponent, free-running vs circadian entrainment conditions (C57Bl/6 mice [2]; prenatal DEX exposure, all ages investigated): significant fluctuations | acrophase, baseline vs forced synchronisation (C57Bl/6 mice [2]; prenatal DEX exposure, mice aged 3 mo and older): did not vary | levels of corticosterone metabolites in the feces vs controls [3]: lower levels | circadian fluctuations in GC secretion ([3]; ZT1-2 vs ZT12-14): did not show significant circadian fluctuations | depression-like phenotype in tail suspension test (C57Bl/6 mice [4]): reconfirmed

CNCCC(Oc1ccc(C(F)(F)F)cc1)c1ccccc1 (stereo not drawn) [FLX, fluoxetine]
reversal of depression-like behavior by antidepressant treatment (C57Bl/6 mice [1]; DEX model, middle-aged mice (12 months)): not reversed | immobility time in FST after FLX treatment (C57Bl/6 mice [1]; DEX-exposed mice): not altered | immobility time in FST after FLX treatment (C57Bl/6 mice [1]; control mice): decreases | effect of FLX treatment on neurogenesis ([5]; DEX-exposed mice): did not have any significant effect; also recorded: has no effect | effect of FLX treatment on neurogenesis ([5]; controls): reduces | number of DCX+ cells after FLX ([5]; middle-aged controls): decreased | reversal of depression-like behavior by antidepressant treatment (mice; young adults (2-3 months)): reversed

[CH3][Hg][Cl] [MeHg, methylmercury]
depression-like behavior after developmental exposure (mice): detectable in young adults
